In brackets after ≈: the same amount, converted by molar mass.
Assays:
C. albicans IFM 40009 = test: Test 3: Action against Candida albicans (in vivo), systemic infection in mice; conditions: i.v. C. albicans 3.0×10^6 cells/mouse, oral 1.25 mg/kg each, four times; for Surviving mice on Day 14 (number of surviving mice/total number in group): Day 14, control 0/11; for Average Survival days: Kaplan-Meier method (Cox mantel test), control 4.5
Protocol: Test 3: Action Against Candida albicans (in vivo)
After 4-week-old, male, ICR (CRJ: CD-1) mice were fasted for 6 hours, C. albicans IFM 40009 was inoculated to the tail vein of each of the mice to give an amount of 3.0×10^6 cells/mouse, whereby infection was caused. A control group consisted of 11 mice, while a medicament-administered group consisted of 5 mice. The medicament dissolved in 20% polyethylene glycol was orally administered 1 hour after the inoculation of the fungus and then consecutively once a day 24 hours after the inoculation, four times in total, at 1.25 mg/kg each. The survival condition on Day 14 after the infection was compared. In addition, the survival days of the control group and the medicament-administered group were detected by the Kaplan-Meier method (Cox mantel test). Incidentally, Fluconazole was employed as a medicament for comparison.

Candida albicans = test: Test 1: Action against Candida albicans (in vitro), suppression of mycelial type growth; type: cell-based, Candida albicans ATCC 44859; conditions: ATCC44859, C. albicans ATCC 44859, 10% fetal-bovine-serum added MEM, 37° C., 24 hours, CO2 incubator, read-out: Terminal point (minimum medicament concentration permitting the apparent suppression of mycerial type growth)
Protocol: Test 1: Action Against Candida albicans (in vitro)
The resulting mixture was incubated at 37° C. for 24 hours in a CO2 gas incubator. After incubation, a morphological change of C. albicans was observed under an inverted microscope. The minimum medicament concentration permitting the apparent suppression of mycerial type growth compared with that of a medicament-free control was designated as a terminal point (ng/ml).

Aspergillus fumigatus = test: Test 2: Action against Aspergillus fumigatus (in vitro), MIC; type: cell-based, Aspergillus fumigatus IFM 40808; conditions: A. fumigatus IFM 40808, MOPS-containing RPMI 1640, pH 7, almar Blue, 35° C., 48 hours
Protocol: Test 2: Action Against Aspergillus fumigatus (in vitro)
They were incubated at 35° C. for 48 hours. Judgment was made visually and the minimum medicament concentration not permitting a change into red (the medium maintained blue color) was designated as an MIC value (μg/ml).

Compound	Surviving mice on Day 14 (number of surviving mice/total number in group) (C. albicans IFM 40009)	Average Survival days (C. albicans IFM 40009) [days]	minimal effective concentration (Candida albicans) [µg/mL]	MIC (Aspergillus fumigatus) [µg/mL]
CCS(=O)(=O)C(F)(F)C(O)(Cn1cncn1)c1ccc(F)cc1F (racemic) [Example 15, 2-(2,4-difluorophenyl)-1-(ethylsulfonyl) -1,1-difluoro-3-(1H-1,2,4-triazole-1-yl)-2-propanol]	4/5	14.00	0.0313	8 (≈ 21.8 µM)
CCS(=O)(=O)C(F)(F)C(O)(Cn1cncn1)c1ccc(F)cc1F (single isomer, unassigned; (-)) [Example 21(2), (-)-2-(2,4-difluorophenyl)-1-(ethylsulfonyl)-1,1-difluoro-3-(1H-1,2,4-triazol-1-yl)-2-propanol]	–	–	0.0156	4 (≈ 10.9 µM)
CCS(=O)(=O)C(F)(F)C(O)(Cn1cncn1)c1ccc(F)cc1 (single isomer, unassigned; (-)) [Example 22(2), (-)-1-(Ethylsulfonyl)-1,1-difluoro-2-(4-fluorophenyl)-3-(1H-1,2,4-triazol-1-yl)-2-propanol]	–	–	0.0156	8 (≈ 22.9 µM)
CCSC(F)(F)C(O)(Cn1cncn1)c1ccc(F)cc1F (stereo not drawn) [Example 9, 2-(2,4-difluorophenyl)-1-(ethylthio)-1,1-difluoro-3-(1H-1,2,4-triazol-1-yl)-2-propanol]	–	–	0.0078	2 (≈ 5.96 µM)
CCSC(F)(F)C(O)(Cn1cncn1)c1ccc(F)cc1 (stereo not drawn) [Example 10, 1-(ethylthio)-1,1-difluoro-2-(4-fluorophenyl)-3-(1H-1,2,4-triazol-1-yl)-2-propanol]	–	–	0.0313	8 (≈ 25.2 µM)
CCSC(F)(F)C(O)(Cn1cncn1)c1ccc(C(F)(F)F)cc1 (stereo not drawn) [Example 11, 1-(ethylthio)-1,1-difluoro-2-(4-trifluoromethylphenyl)-3-(1H-1,2,4-triazol-1-yl)-2-propanol]	–	–	0.0078	16 (≈ 43.6 µM)
CCSC(F)(F)C(O)(Cn1cncn1)c1ccc(Cl)cc1Cl (stereo not drawn) [Example 12, 2-(2,4-dichlorophenyl)-1-(ethylthio)-1,1-difluoro-3-(1H-1,2,4-triazol-1-yl)-2-propanol]	–	–	0.0039	1 (≈ 2.72 µM)
CCSC(F)(F)C(Cn1cncn1)(OC)c1ccc(F)cc1F (stereo not drawn) [Example 13, 1-[2-(2,4-difluorophenyl)-3-ethylthio-3,3-difluoro-2-methoxypropyl]-1H-1,2,4-triazole]	–	–	0.0313	8 (≈ 22.9 µM)
CCS(=O)(=O)C(F)(F)C(O)(Cn1cncn1)c1ccc(Cl)cc1Cl (stereo not drawn) [Example 18, 2-(2,4-dichlorophenyl)-1-(ethylsulfonyl)-1,1-difluoro-3-(1H-1,2,4-triazol-1-yl)-2-propanol]	–	–	0.0156	8 (≈ 20 µM)
OC(Cn1cncn1)(Cn1cncn1)c1ccc(F)cc1F [Fluconazole, reference compound]	1/5	11.0	0.25	> 128
